Assay results published in patent US20070092577A1, “Dietary calcium for reducing the production of reactive oxygen species” (University of Tennessee Research Foundation, priority 2005, published 2007).

Key:
[1] = tested on: MIF; assay: MIF expression in human adipocytes; type: cell-based; conditions: calcitriol 10 nmol/L, 48 hours; p=0.001
Description: Cell culture: Human preadipocytes used in this study were supplied by Zen-Bio (Research Triangle, N.C.). Preadipocytes were inoculated in DMEM/Ham's F-10 medium (DMEM-F10) (1:1, vol/vol) containing 10% FBS, 15 mmol/L HEPES, and antibiotics at a density of 30,000 cells/cm^2. Confluent monolayers of preadipocytes were induced to differentiate with a standard differentiation medium consisting of DMEM-F 10 (1:1, vol/vol) medium supplemented with 15 mmol/L HEPES, 3% FBS, 33 μmol/L biotin, 17 μmol/L pantothenate, 100 nmol/L insulin, […] methylisobutylxanthine, 1 μmol/L dexamethasone, 1 μmol/L BRL49653, and antibiotics. […]
(§1) Cells were washed with fresh adipocyte medium, re-fed with medium containing the indicated treatments, and incubated at 37° C. in 5% CO2 for 48 hours before analysis. Cell viability was measured via trypan blue exclusion.
(§2) Adipocyte and muscle 18s, CD14, TNFα, MIP, M-CSF, IL-6 and MCP-1 were quantitatively measured using a Smart Cycler Real Time PCR System (Cepheid, Sunnyvale, Calif.) with a TaqMan 1000 Core Reagent Kit (Applied Biosystems, Branchburg, N.J.). […] Reactions of quantitative RT-PCR for standards and unknown samples were also performed according to the instructions of Smart Cycler System (Cepheid, Sunnyvale, Calif.) and TaqMan Real Time PCR Core Kit (Applied Biosystems, Branchburg, N.J.). […]

[2] = tested on: M-CSF; assay: M-CSF expression in 3T3-L1 adipocytes; type: cell-based, mouse; conditions: calcitriol 10 nmol/L, 48 hours
Method: (§3) RAW 264 macrophages and 3T3-L1 preadipocytes (American Type Culture Collection) were incubated at a density of 8000 cells/cm2 (10 cm2 dish) and grown in Dulbecco's modified Eagle's medium (DMEM) containing 10% FBS and antibiotics (adipocyte medium) at 37° C. in 5% CO2 in air. Confluent 3T3-L1 preadipocytes were induced to differentiate with a standard differentiation medium consisting of DMEM-F10 (1:1, vol/vol) medium supplemented with 1% FBS, 1 μM dexamethasone, IBMX (0.5 mM) and antibiotics (1% Penicillin-Streptomycin). Preadipocytes were maintained in this differentiation medium for 3 days and subsequently cultured in adipocyte medium. […]
Cell viability was measured via trypan blue exclusion.
Adipocyte and muscle 18s, CD14, TNFα, MIP, M-CSF, IL-6 and MCP-1 were quantitatively measured using a Smart Cycler Real Time PCR System (Cepheid, Sunnyvale, Calif.) with a TaqMan 1000 Core Reagent Kit (Applied Biosystems, Branchburg, N.J.). […] Reactions of quantitative RT-PCR for standards and unknown samples were also performed according to the instructions of Smart Cycler System (Cepheid, Sunnyvale, Calif.) and TaqMan Real Time PCR Core Kit (Applied Biosystems, Branchburg, N.J.). The mRNA quantitation for each sample was further normalized using the corresponding 18s quantitation.

[3] = tested on: IL-15; assay: IL-15 expression in differentiated Zen-bio human adipocytes; type: cell-based; conditions: 10 nmol/L 1α, 25-(OH)2-D3 or 10 μmol/L nifedipine, 48 h; p=0.473
Method: (§4) Human pre-adipocytes used in this study were supplied by Zen-Bio (Research Triangle, N.C.). […] The cells are isolated from the stromal vascular fraction of human subcutaneous adipose tissue and differentiated in vitro as follows: […] Preadipocytes were maintained in this differentiation medium for 3 days and subsequently cultured in adipocyte medium in which BRL49653 and MIX were omitted. Cultures were re-fed every 2-3 days till fully differentiated. Cells were incubated in serum free medium overnight before chemical treatment. Chemicals were freshly diluted in adipocyte medium before treatment. […] Cell viability was measured via trypan blue exclusion. Adipocyte and muscle 18s, TNFα, IL-6, IL-8, IL-15 and adiponectin were quantitatively measured using a smart cycler real-time PCR system (Cepheid, Sunnyvale, Calif.) with a TaqMan 1000 Core Reagent Kit (Applied Biosystems, Branchburg, N.J.). […] Reactions of quantitative RT-PCR for standards and unknown samples were also performed according to the instructions of Smart Cycler System (Cepheid, Sunnyvale, Calif.) and TaqMan Real Time PCR Core Kit (Applied Biosystems, Branchburg, N.J.). The mRNA quantitation for each sample was further normalized using the corresponding 18s quantitation.

[4] = tested on: MIP; assay: MIP expression in 3T3-L1 adipocytes; type: cell-based, mouse; conditions: calcitriol 10 nmol/L, 48 hours
Method: as §3, §1, §2

[5] = tested on: IL-6; assay: IL-6 expression in differentiated Zen-bio human adipocytes; type: cell-based; conditions: 10 nmol/L, 48 h; p=0.004
Method: as §4

[6] = tested on: NADPH oxidase; assay: NADPH oxidase expression in 3T3-L1 adipocytes; type: cell-based, murine; conditions: added to glucose 30 mmol/L, 48 hours; nifedipine 10 μmol/L
Method: 3T3-L1 preadipocytes were incubated at a density of 8000 cells/cm^2 (10 cm^2 dish) and grown in Dulbecco's modified Eagle's medium (DMEM) containing 10% FBS and antibiotics (adipocyte medium) at 37° C. in 5% CO2 in air. Confluent preadipocytes were induced to differentiate with a standard differentiation medium consisting of DMEM-F 10 (1:1, vol/vol) medium supplemented with 1% FBS, 1 μM dexamethasone, IBMX (0.5 mM) and antibiotics (1% Penicillin-Streptomycin). Preadipocytes were maintained in this differentiation medium for 3 days and subsequently cultured in adipocyte medium. Cultures were re-fed every 2-3 days to allow 90% of cells to reach full differentiation before conducting chemical treatment. Chemicals were freshly diluted in adipocyte medium before treatment. […] Cell viability was measured via trypan blue exclusion. Adipocyte 18s, cyclin A, NADPH oxidase, and UCP2 were quantitatively measured using a Smart Cycler Real Time PCR System (Cepheid, Sunnyvale, Calif.) with a TaqMan 1000 Core Reagent Kit (Applied Biosystems, Branchburg, N.J.). […] Reactions of quantitative RT-PCR for standards and unknown samples were also performed according to the instructions of Smart Cycler System (Cepheid, Sunnyvale, Calif.) and TaqMan Real Time PCR Core Kit (Applied Biosystems, Branchburg, N.J.). The mRNA quantitation for each sample was further normalized using the corresponding 18s quantitation.

## C=C1/C(=C\C=C2/CCC[C@]3(C)[C@@H]([C@H](C)CCCC(C)(C)O)CC[C@@H]23)C[C@@H](O)C[C@@H]1O [calcitriol, 1, 25-Dihydroxyvitamin D]
[1]
  increase of MIF expression: 59%
[2]
  effect on M-CSF expression: markedly stimulate
[3]
  effect on IL-15 expression: no effect
[4]
  effect on MIP expression: markedly stimulate
[5]
  stimulation of IL-6 expression: 53%
[6]
  effect on NADPH oxidase expression: stimulated
